# Entries after “also recorded” stand apart in the source; their conditions may differ.
# B1: Sema III: a diffusible member of the semaphorin family, purified from conditioned medium of 293-EBNA cell lines (protein, UniProt Q14563 21-771, looked up)
# Semaphorin-3A: NYQNGKNNVPRLKLSYKEMLESNNVITFNGLANSSSYHTFLLDEERSRLYVGAKDHIFSFDLVNIKDFQKIVWPVSYTRRDECKWAGKDILKECANFIKVLKAYNQTHLYACGTGAFHPICTYIEIGHHPEDNIFKLENSHFENGRGKSPYDPKLLTASLLIDGELYSGTAADFMGRDFAIFRTLGHHHPIRTEQHDSRWLNDPKFISAHLISESDNPEDDKVYFFFRENAIDGEHSGKATHARIGQICKNDFGGHRSLVNKWTTFLKARLICSVPGPNGIDTHFDELQDVFLMNFKDPKNPVVYGVFTTSSNIFKGSAVCMYSMSDVRRVFLGPYAHRDGPNYQWVPYQGRVPYPRPGTCPSKTFGGFDSTKDLPDDVITFARSHPAMYNPVFPMNNRPIVIKTDVNYQFTQIVVDRVDAEDGQYDVMFIGTDVGTVLKVVSIPKETWYDLEEVLLEEMTVFREPTAISAMELSTKQQQLYIGSTAGVAQLPLHRCDIYGKACAECCLARDPYCAWDGSACSRYFPTAKRRTRRQDIRNGDPLTHCSDLHHDNHHGHSPEERIIYGVENSSTFLECSPKSQRALVYWQFQRRNEERKEEIRVDDHIIRTDQGLLLRSLQQKDSGNYLCHAVEHGFIQTLLKVTLEVIDTEHLEELLHKDDDGDGSKTKEMSNSMTPSQKVWYRDFMQLINHPNLNTMDEFCEQVWKRDRKQRRQRPGHTPGNSNKWKHLQENKKGRNRRTHEFERAPRSV
# B2: rMAG: recombinant protein consisting of the extracellular domain of MAG (protein, UniProt P07722 20-516, looked up)
# extracellular domain: GHWGAWMPSSISAFEGTCVSIPCRFDFPDELRPAVVHGVWYFNSPYPKNYPPVVFKSRTQVVHESFQGRSRLLGDLGLRNCTLLLSTLSPELGGKYYFRGDLGGYNQYTFSEHSVLDIINTPNIVVPPEVVAGTEVEVSCMVPDNCPELRPELSWLGHEGLGEPTVLGRLREDEGTWVQVSLLHFVPTREANGHRLGCQAAFPNTTLQFEGYASLDVKYPPVIVEMNSSVEAIEGSHVSLLCGADSNPPPLLTWMRDGMVLREAVAESLYLDLEEVTPAEDGIYACLAENAYGQDNRTVELSVMYAPWKPTVNGTVVAVEGETVSILCSTQSNPDPILTIFKEKQILATVIYESQLQLELPAVTPEDDGEYWCVAENQYGQRATAFNLSVEFAPIILLESHCAAARDTVQCLCVVKSNPEPSVAFELPSRNVTVNETEREFVYSERSGLLLTSILTLRGQAQAPPRVICTSRNLYGTQSLELPFQGAHRLMWAKIGP
# modifications: extracellular domain
# notes: recombinant protein consisting of the extracellular domain of MAG
# Columns and labels:
# Type in all cases: cell-based
# [1] = tested on: growth cones of Xenopus spinal neurons; test: Growth cone turning in a rMAG gradient; details: for growth cone turning response in rMAG gradient with agent in medium: rMAG 150 μg/ml in the pipette, 8-br-cGMP 100 μM, Sp-cAMPS 20 μM
# Excerpt: To examine whether the responses to other repulsive factors can be converted, we studied myelin-associated glycoprotein (MAG), a component of myelin and an inhibitor of axonal regeneration (22). […] However, the repulsion by rMAG was not affected by the addition of 8-br-cGMP. […] Thus the turning response induced by rMAG can be modulated by cAMP-dependent activities. This is reminiscent of the turning responses induced by gradients of BDNF and netrin-1 (4,5), although the latter factors are normally attractive and are converted to repulsive by inhibition of cAMP-dependent activities.
# (§1) 8. Dissociated Xenopus spinal neurons were prepared as described (4,5). Isolated spinal neurons were used for experiments at room temperature (22°-24° C.) 14-22 hour after plating. Sema III was purified from conditioned medium of stable 293-EBNA cell lines secreting Sema III-AP as described (17). To inactivate Sema III activity, the supernatant containing Sema III-AP was heated at 85° C. for 45 minutes [J. Fan and J. A. Raper, Neuron 14, 263 (1995)]. Microscopic gradients of diffusible factors were produced as described (4,5). The average concentration of factors at the growth cone was about 10^3-fold lower than that in the pipette [A. M. Lohof, M. Quilian, Y. Dan and M-m. Poo, J. Neurosci. 12, 1253 (1992)], and a concentration gradient of 5-10% was created across a growth cone 10 μm wide, 100 μm away from the tip of the ejecting pipette. The original direction of neurite growth was defined by the last 10-μm segment of the neurite. The turning angle was defined by the angle between the original direction of neurite extension and a straight line connecting the positions of the growth cone at the onset and the end of the one hour period. Only growth cones with a net extension >5 μm over the one-hour period were scored.
# 10. M. A. Schwarzschild and R. E. Zigmond, J. Neurochem. 56, 400 (1991). Pharmacological agents were added to the culture medium at least 30 minutes before the gradient was applied and were present during the experiments. […]
# [2] = tested on: growth cones of Xenopus spinal neurons; test: Growth cone turning in a netrin-1 gradient; details: for turning response in netrin-1 gradient with agent in medium: netrin-1 5 μg/ml in the pipette, Rp-cGMPS 10 μM, 8-br-cGMP 100 μM, Rp-cAMPS 20 μM
# Procedure: (§2) FIGS. 4A-4D. (A) Effects of manipulating cyclic nucleotide levels on turning induced by a rMAG gradient (150 μg/ml in the pipette) in normal medium, in medium containing 8-br-cGMP (100 μM) or Sp-cAMPS (20 μM), and by heat-inactivated rMAG in normal medium. […] (B) Effects of reducing [Ca^2+]o on turning responses induced by rMAG. […] (C) Turning responses induced by a gradient of netrin-1 (5 μg/ml in the pipette) (5), in normal medium and in medium containing Rp-cGMPS (10 μM), 8-br-cGMP (100 μM), Rp-cAMPS (20 μM), or both Rp-cAMPS (20 μM) and 8-br-cGMP (100 μM). […] (D) Turning induced by a NT-3 gradient (50 μg/ml in the pipette) in normal medium and in medium containing Rp-cAMPS (20 μM) or Rp-cGMPS (10 μM), or in medium containing 1 μM Ca^2+.
# as §1
# (§3) 10. M. A. Schwarzschild and R. E. Zigmond, J. Neurochem. 56, 400 (1991). Pharmacological agents were added to the culture medium at least 30 minutes before the gradient was applied and were present during the experiments. The final concentrations of pharmacological agents in the medium were listed.
# [3] = tested on: growth cones of the cultured Xenopus spinal neuron; test: Growth cone turning in a Sema III gradient; details: for growth cone turning response in Sema III gradient with agent in culture medium: Sema III 50 μg/ml in the pipette, 8-br-cGMP 100 μM, Sp-cGMPS 10 μM, PP-9 10 μM, SNAP 300 μM, Rp-cGMPS 10 μM, cAMPS analogues 20 μM, one-hour exposure; for conversion of the Sema III turning response in the presence of 8-br-cGMP: 8-br-cGMP 100 μM plus Rp-cAMPS or Sp-cAMPS 20 μM
# Procedure: Collapsin-1/Semaphorin III/D (Sema III), a diffusible member of the semaphorin family can repel or cause collapse of growth cones in culture (6). […] We analyzed the effect of a microscopic gradient of Sema III on growth cones of the cultured Xenopus spinal neuron (8). Sema III-containing saline was applied in pulses from a micropipette positioned 100 μm from the center of the growth cone and at a 45° angle with respect to the original direction of neurite extension. […] The repulsive response was dose-dependent with a minimal response occurring at an effective concentration of about 10 ng/ml at the growth cone (8). Heat-inactivated Sema III was ineffective (FIG. 1A). […] The rate of neurite extension was unaffected by the presence of the Sema III gradient.
# as §1, §3
# [4] = tested on: rat dorsal root ganglion (DRG) axons; test: Growth cone collapse assay with Sema III on DRG explants; details: for inhibition of the collapsing activity of Sema III: agent added an hour before the collapse assay; for effect of agent alone on growth cones: without Sema III
# Procedure: 21. DRG explants derived from E14 rat embryos were cultured with 25 ng/ml NGF on plates precoated with poly-D-lysine and laminin for 20 hours before experiments as described (17). Pharmacological agents were added an hour before the collapse assay. The collapse assay was performed on sensory axons from these explants using Sema III-AP-containing medium essentially as described (17). For visualization, growth cones were stained with rhodamine-phalloidin, then washed and mounted.
# [5] = tested on: growth cones of Xenopus spinal neurons; test: Growth cone turning in a NT-3 gradient; details: NT-3 50 μg/ml in the pipette; Rp-cGMPS 10 μM, Rp-cAMPS 20 μM
# Procedure: as §2
# 8. Dissociated Xenopus spinal neurons were prepared as described (4,5). Isolated spinal neurons were used for experiments at room temperature (22°-24° C.) 14-22 hour after plating. Sema III was purified from conditioned medium of stable 293-EBNA cell lines secreting Sema III-AP as described (17). To inactivate Sema III activity, the supernatant containing Sema III-AP was heated at 85° C. for 45 minutes [J. Fan and J. A. Raper, Neuron 14, 263 (1995)]. Microscopic gradients of diffusible factors were produced as described (4,5). […] Only growth cones with a net extension >5 μm over the one-hour period were scored. […]
molecule,measurement,setting,value
"Nc1nc2c(nc(Br)n2[C@@H]2O[C@@H]3COP(=O)(O)O[C@H]3[C@H]2O)c(=O)[nH]1 [Activator 8-br-cGMP, 8-br-cGMP]",growth cone turning response in rMAG gradient with agent in medium,[1],not affected
same,repulsive turning in netrin-1 gradient in the presence of Rp-cAMPS,[2]; Rp-cAMPS 20 μM and 8-br-cGMP 100 μM,not affected
same,turning response in netrin-1 gradient with agent in medium,[2],did not affect the attractive turning
same,growth cone turning response in Sema III gradient with agent in culture medium,[3],nearly all growth cones turned toward rather than away from the pipette; also recorded: attractive response
same,inhibition of the collapsing activity of Sema III,[4],inhibited the collapsing activity of Sema III in a dose-dependent manner
same,concentrations needed to inhibit the collapsing activity of Sema III,[4]; rat DRG explants,0.5 to 5 mM
same,effect of agent alone on growth cones,[4],no detectable effect
Nc1ncnc2c1ncn2[C@@H]1O[C@@H]2COP(O)(=S)O[C@H]2[C@H]1O (stereo partly drawn) [Sp-cAMPS],growth cone turning response in rMAG gradient with agent in medium,[1],converted to attraction
same,conversion of the Sema III turning response in the presence of 8-br-cGMP,[3],not
same,inhibition of the collapsing activity of Sema III,[4],not
same,effect of agent alone on growth cones,[4],no detectable effect
CC(=O)N[C@H](C(=O)O)C(C)(C)SN=O (racemic) [S-Nitroso-N-acetylpenicillamine],growth cone turning response in Sema III gradient with agent in culture medium,[3],abolished the repulsive turning response without causing a significant attractive response
Nc1nc2c(ncn2[C@@H]2O[C@@H]3COP(O)(=S)O[C@H]3[C@H]2O)c(=O)[nH]1 (stereo partly drawn) [Rp-cGMPS],turning response in netrin-1 gradient with agent in medium,[2],did not affect the attractive turning
same,attractive response in a NT-3 gradient with agent in medium,[5],converted to repulsive response
same,growth cone turning response in Sema III gradient with agent in culture medium,[3],did not affect the growth cone response
Nc1ncnc2c1ncn2[C@@H]1O[C@@H]2CO[P@@](O)(=S)O[C@H]2[C@H]1O [Rp-cAMPS],turning response in netrin-1 gradient with agent in medium,[2],repulsive turning
same,attractive response in a NT-3 gradient with agent in medium,[5],no effect
same,conversion of the Sema III turning response in the presence of 8-br-cGMP,[3],blocked the conversion of the turning response
Nc1nc2c(ncn2[C@@H]2O[C@@H]3COP(O)(=S)O[C@H]3[C@H]2O)c(=O)[nH]1 (stereo partly drawn) [Sp-cGMPS],growth cone turning response in Sema III gradient with agent in culture medium,[3],nearly all growth cones turned toward rather than away from the pipette
B1,rate of neurite extension,[3]; in the presence of the Sema III gradient,unaffected
same,effective concentration at the growth cone for minimal repulsive response,[3]; normal medium,about 10 ng/ml
same,growth cone turning induced by the factor gradient,"[3]; normal medium, pipette 100 μm from growth cone, 45° angle",Most growth cones grew away from the pipette
same,collapse of growth cones,[3]; up to 100 μg/ml of Sema III in the pipette,No obvious collapse of growth cones
B2,growth cone turning induced by the rMAG gradient,[1]; normal medium,repelled growth cones
